# Experimental data: patent publication US20200172483A1, “HETEROCYCLIC SMALL MOLECULE MODULATORS OF HUMAN STING” (Curadev Pharma Limited, priority 2017, published 2020)
# Assays:
# hSTING (H232) = biological target: T1, hSTING (H232) (Homo sapiens, UniProt Q86WV6); assay: Luciferase reporter assay in HEK293T-hSTING-Luciferase cells (H232/REF polymorph); type: cell-based; details: EC50 range
# T1 construct: host or cells: HEK293T
# In short: (§1)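 Clonal HEK293T lines stably expressing the hSTING variant (H232 or HAQ) plus an ISRE/ISG54-driven secreted luciferase reporter were stimulated with compounds for 20 hr. Supernatant luciferase measured by luminescence (Quanti-Luc).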
# WT/R232 STING protein = biological target: T2, WT/R232 STING protein (Homo sapiens, UniProt Q86WV6, H232R); assay: Luciferase reporter assay in HEK293T-hSTING-Luciferase cells (R232); type: cell-based; details: 20 hr stimulation, EC50 range
# T2 construct: host or cells: HEK293T
# T2 sequence (Q86WV6 whole entry H232R): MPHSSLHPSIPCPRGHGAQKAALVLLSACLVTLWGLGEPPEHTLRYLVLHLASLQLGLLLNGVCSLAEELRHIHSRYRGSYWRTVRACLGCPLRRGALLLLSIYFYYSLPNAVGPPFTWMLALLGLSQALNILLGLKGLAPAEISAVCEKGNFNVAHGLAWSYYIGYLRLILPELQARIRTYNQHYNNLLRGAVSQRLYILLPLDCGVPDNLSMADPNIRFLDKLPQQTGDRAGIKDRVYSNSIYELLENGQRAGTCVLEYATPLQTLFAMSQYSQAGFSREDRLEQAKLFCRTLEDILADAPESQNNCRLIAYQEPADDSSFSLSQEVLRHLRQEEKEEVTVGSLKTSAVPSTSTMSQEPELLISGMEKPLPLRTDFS
# In short: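 Readout is fold-induction over baseline of secreted luciferase, measured by luminescence after 20 hr compound stimulation. Cells: clonally selected HEK293T stably carrying hSTING (R232) and a luciferase reporter under five tandem ISREs fused to an ISG54 minimal promoter.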
# NF-κB pathway = assay: Reporter gene expression assay for NFκB axis in THP1-Dual cells (secreted SEAP); type: cell-based, human; details: Homo sapiens, THP1-Dual, 20 h, 20 hr stimulation, QUANTI-Blue SEAP, EC50 range, read-out: THP-NFKB activity
# In short: (§2)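 THP1-Dual cells (THP-1 monocytes with inducible NF-κB-SEAP and IRF-Lucia reporters; 5×10^5 cells) were stimulated with compounds for 20 hr. Secreted SEAP (QUANTI-Blue) and Lucia luciferase (QUANTI-Luc) were then measured in the supernatant. EC50 values are reported as ranges.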
# hSTING (HAQ) = biological target: T3, hSTING (HAQ) (Homo sapiens, UniProt Q86WV6, G230A/H232R/R293Q/R71H); assay: Luciferase reporter assay in HEK293T-hSTING-Luciferase cells (HAQ polymorph); type: cell-based; details: EC50 range
# T3 construct: host or cells: HEK293T
# T3 sequence (Q86WV6 whole entry R71H/G230A/H232R/R293Q): as the sequence (Q86WV6 whole entry H232R) above, with R71H, G230A, R293Q counted along it
# In short: as §1
# IRF pathway = assay: Reporter gene expression assay for IRF axis in THP1-Dual cells (secreted Lucia luciferase); type: cell-based, human; details: Homo sapiens, THP1-Dual, 20 h, 20 hr stimulation, QUANTI-Luc, EC50 range, read-out: THP-IRF activity
# In short: as §2
# T1 sequence (Q86WV6 whole entry): as the sequence (Q86WV6 whole entry H232R) above, with R232H counted along it
Compound,EC50 (hSTING (H232)) [µM],EC50 (WT/R232 STING protein) [µM],EC50 (NF-κB pathway) [µM],EC50 (hSTING (HAQ)) [µM],EC50 (IRF pathway) [µM]
"CC1(C)C(=O)N(Cc2c(F)cccc2Cl)c2cc(C(=O)NCc3ccc(F)cc3F)ccc21 [Example 26, 1-(2-chloro-6-fluorobenzyl)-N-(2,4-difluorobenzyl)-3,3-dimethyl-2-oxoindoline-6-carboxamide]",≤ 1,≤ 1,1 to 10,≤ 1,1 to 10
"CC1(N=[N+]=[N-])C(=O)N(Cc2c(F)cccc2Cl)c2cc(C(=O)NCc3c(F)cc(F)cc3F)ccc21 (centres unmarked) [Example 153, 3-azido-1(2-chloro-6-fluorobenzyl)-3-methyl-2-oxo-N-(2,4,6-trifluorobenzyl)indoline-6-carboxamide]",1 to 10,≤ 1,1 to 10,1 to 10,> 10
"CC1(C)C(=O)N(Cc2c(F)cccc2Br)c2cc(C(=O)NCc3c(F)cc(F)cc3F)ccc21 [Example 108, 1-(2-bromo-6-fluorobenzyl)-3,3-dimethyl-2-oxo-N-(2,4,6-trifluorobenzyl)indoline-6-carboxamide]",> 10,≤ 1,> 10,> 10,> 10
"CC1(C)C(=O)N(Cc2cccc(C(N)=O)c2)c2cc(C(=O)NCc3c(F)cc(F)cc3F)ccc21 [Example 37, 1-(3-carbamoylbenzyl)-3,3-dimethyl-2-oxo-N-(2,4,6-trifluorobenzyl)indoline-6-carboxamide]",1 to 10,1 to 10,> 10,> 10,> 10
"CC1(C#N)C(=O)N(Cc2cc(F)cc(F)c2)c2cc(C(=O)NCc3cc4ccccc4o3)ccc21 (centres unmarked) [Example 92, N-(benzofuran-2-ylmethyl)-3-cyano-1-(3,5-difluorobenzyl)-3-methyl-2-oxoindoline-6-carboxamide]",1 to 10,1 to 10,> 10,1 to 10,> 10
"CC1(C)C(=O)N(Cc2ccccc2F)c2cc(C(=O)NCc3c(F)cc(F)cc3F)ccc21 [Example 6, 1-(2-fluorobenzyl)-3,3-dimethyl-2-oxo-N-(2,4,6-trifluorobenzyl)indoline-6-carboxamide]",≤ 1,≤ 1,1 to 10,≤ 1,1 to 10
"CC1(C)C(=O)N(Cc2c(F)cccc2Cl)c2cc(C(=O)NCc3cc4ccccc4o3)ccc21 [Example 36, N-(benzofuran-2-ylmethyl)-1-(2-chloro-6-fluorobenzyl)-3,3-dimethyl-2-oxoindoline-6-carboxamide]",1 to 10,≤ 1,1 to 10,1 to 10,1 to 10
"Cc1ccc(CNC(=O)c2ccc3c(c2)N(Cc2ccc(F)cc2)C(=O)C3(C)C)o1 [Example 60, 1-(4-fluorobenzyl)-3,3-dimethyl-N-((5-methylfuran-2-yl)methyl)-2-oxoindoline-6-carboxamide]",> 10,1 to 10,> 10,1 to 10,> 10
"CC(C)C1(Cl)C(=O)N(Cc2c(F)cccc2Cl)c2cc(C(=O)NCc3c(F)cc(F)cc3F)ccc21 (centres unmarked) [Example 157, 3-chloro-1-(2-chloro-6-fluorobenzyl)-3-isopropyl-2-oxo-N-(2,4,6-trifluorobenzyl)indoline-6-carboxamide]",1 to 10,≤ 1,> 10,1 to 10,> 10
"CC1(C)C(=O)N(Cc2ccccc2C#N)c2cc(C(=O)NCc3c(F)cc(F)cc3F)ccc21 [Example 124, 1-(2-cyanobenzyl)-3,3-dimethyl-2-oxo-N-(2,4,6-trifluorobenzyl)indoline-6-carboxamide]",1 to 10,≤ 1,> 10,1 to 10,> 10
"CC1(C)C(=O)N(Cc2c(F)cccc2C#N)c2cc(C(=O)NCc3c(F)cc(F)cc3F)ccc21 [Example 76, 1-(2-cyano-6-fluorobenzyl)-3,3-dimethyl-2-oxo-N-(2,4,6-trifluorobenzyl)indoline-6-carboxamide]",1 to 10,1 to 10,> 10,1 to 10,> 10
"CC1(Cl)C(=O)N(Cc2c(F)cccc2Cl)c2cc(C(=O)NCc3c(F)cc(F)cc3F)ccc21 (centres unmarked) [Example 146, 3-chloro-1(2-chloro-6-fluorobenzyl)-3-methyl-2-oxo-N-(2,4,6-trifluorobenzyl)indoline-6-carboxamide]",1 to 10,≤ 1,1 to 10,1 to 10,> 10
"Cc1ccc(CNC(=O)c2ccc3c(n2)N(Cc2cc(F)cc(F)c2)C(=O)C3(C)C)o1 [Example 188, 1-(3,5-difluorobenzyl)-3,3-dimethyl-N-((5-methylfuran-2-yl)methyl)-2-oxo-2,3-dihydro-1H-pyrrolo[2,3-b]pyridine-6-carboxamide]",1 to 10,1 to 10,> 10,1 to 10,> 10
